According to ChEMBL document CHEMBL3886595, “Compounds and compositions for inhibiting the activity of ABL1, ABL2 and BCR-ABL1” (2016):

Tests used:
[1] = biological target: T1, Tyrosine-protein kinase ABL1 (Homo sapiens, UniProt P00519); assay: Radio ABL1 (64-515) Assay: For determination of ABL kinase activity, the radiometric filter-binding assay was used. The assay was performed by mixing 10 uL of the compound pre-diluted with 10 uL of ATP (20 uM ATP with 0.1 uCi [γ-33P]-ATP) with the phospho-acceptor peptide poly[Ala6Glu2LysHBr5Tyr1]=polyAEKY) in 20 mM Tris/HCl pH 7.5, 1 mM DTT, 10 mM MgCl2, 0.01 mM Na3VO4, 50 mM NaCl. 10 uL of …
Description: 10 uL of enzyme (ranging between 5 nM to 20 nM) was added to initiate the reaction. Pre-incubation of enzyme with compounds (when stated) was performed by exposing the enzyme to compounds prior to addition of the substrate mixture (ATP and/or peptide substrate). […] Filter-plates were washed 3x with 0.5% H3PO4, followed by addition of 30 uL scintillation cocktail (Microscint, Perkin Elmer) per well and then analysed in a TopCount NXT scintillation counter (Perkin Elmer).

[2] = biological target: T1, Tyrosine-protein kinase ABL1; assay: Caliper ABL : The assay plates were prepared by addition of 50 nL per well of compound solution in 90% DMSO. The kinase reactions were started by stepwise addition of 4.5 uL per well of peptide/ATP-solution (50 mM HEPES, pH 7.5, 1 mM DTT, 0.02% BSA, 0.6% DMSO, 10 mM beta-glycerophosphate, and 10 uM sodium orthovanadate, 20 mM MgCl2, 2 mM MnCl2, 4 uM ATP, 4 uM peptide (FITC-Ahx-EAIYAAPFAKKK-NH2)) …

T1 sequence (P00519 whole entry): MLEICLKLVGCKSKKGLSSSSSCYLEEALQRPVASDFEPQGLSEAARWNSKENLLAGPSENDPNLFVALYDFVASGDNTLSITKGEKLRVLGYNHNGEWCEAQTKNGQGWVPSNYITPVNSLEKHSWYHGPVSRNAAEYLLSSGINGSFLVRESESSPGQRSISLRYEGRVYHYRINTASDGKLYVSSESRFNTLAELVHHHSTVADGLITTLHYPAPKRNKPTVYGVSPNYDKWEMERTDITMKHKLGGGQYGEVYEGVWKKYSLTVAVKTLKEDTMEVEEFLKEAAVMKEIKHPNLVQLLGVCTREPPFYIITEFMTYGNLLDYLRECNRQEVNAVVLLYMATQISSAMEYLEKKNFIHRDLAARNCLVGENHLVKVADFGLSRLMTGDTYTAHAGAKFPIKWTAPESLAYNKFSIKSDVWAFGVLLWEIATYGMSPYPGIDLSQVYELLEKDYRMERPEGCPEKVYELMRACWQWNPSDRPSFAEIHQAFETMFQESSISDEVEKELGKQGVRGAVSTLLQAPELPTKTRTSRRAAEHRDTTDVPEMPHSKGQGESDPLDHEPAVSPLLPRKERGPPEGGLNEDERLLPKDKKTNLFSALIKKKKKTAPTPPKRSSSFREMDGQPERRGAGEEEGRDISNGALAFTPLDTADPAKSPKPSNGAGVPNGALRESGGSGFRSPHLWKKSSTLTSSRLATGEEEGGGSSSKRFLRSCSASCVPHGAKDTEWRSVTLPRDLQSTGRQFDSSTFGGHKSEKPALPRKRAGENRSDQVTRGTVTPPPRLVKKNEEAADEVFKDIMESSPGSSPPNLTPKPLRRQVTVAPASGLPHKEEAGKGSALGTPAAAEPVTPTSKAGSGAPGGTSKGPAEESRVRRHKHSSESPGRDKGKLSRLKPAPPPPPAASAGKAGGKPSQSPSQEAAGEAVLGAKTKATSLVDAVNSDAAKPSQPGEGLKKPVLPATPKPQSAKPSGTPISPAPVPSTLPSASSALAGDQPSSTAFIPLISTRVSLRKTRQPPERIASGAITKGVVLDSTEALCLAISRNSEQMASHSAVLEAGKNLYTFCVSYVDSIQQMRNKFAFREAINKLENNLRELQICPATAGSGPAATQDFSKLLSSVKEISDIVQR

| SMILES | IC50 [1] | IC50 [2] |
| --- | --- | --- |
| O=C(Nc1ccc(OC(F)(F)F)cc1)c1cnc(N2CC[C@H](CO)C2)c(-c2cncc(F)c2)c1 | 6.3 nM | 0.6 nM |
| Cc1ccc(-c2cc(C(=O)Nc3ccc(OC(F)(F)F)cc3)cnc2N2CC[C@H](N)C2)cn1 | 7 nM | – |
